The supplement of paper PMC10307832

Experiments:
Test in all cases: relative viability (nuclei count vs DMSO), 5 days (fraction); higher = more cells survive
ABC-1 = tested on: ABC-1
Summary of the method: (§1)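 Values are medians from duplicate plates. Each reflects relative viability, defined as the nuclei count of treated wells over that of vehicle wells. Lung cancer cell lines in 1536-well plates were pin-tool dosed one day after seeding with one drug alone or with a fixed anchor-drug dose plus five library-drug doses (not always all listed) in √10 steps, then fixed, stained and imaged at 4× after 5 days.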

CAL-12T = tested on: CAL-12T
Summary of the method: as §1

ChaGo-K-1 = tested on: ChaGo-K-1
Summary of the method: as §1

EKVX = tested on: EKVX
Summary of the method: as §1

EPLC-272H = tested on: EPLC-272H
Summary of the method: as §1

H3255 = tested on: H3255
Summary of the method: as §1

HCC-366 = tested on: HCC-366
Summary of the method: as §1

HCC-827 = tested on: HCC-827
Summary of the method: as §1

NCI-H1355 = tested on: NCI-H1355
Summary of the method: as §1

NCI-H1792 = tested on: NCI-H1792
Summary of the method: as §1

NCI-H1975 = tested on: NCI-H1975
Summary of the method: as §1

NCI-H1993 = tested on: NCI-H1993
Summary of the method: as §1

NCI-H2085 = tested on: NCI-H2085
Summary of the method: as §1

NCI-H2087 = tested on: NCI-H2087
Summary of the method: as §1

NCI-H2342 = tested on: NCI-H2342
Summary of the method: as §1

NCI-H322M = tested on: NCI-H322M
Summary of the method: as §1

NCI-H441 = tested on: NCI-H441
Summary of the method: as §1

NCI-H460 = tested on: NCI-H460
Summary of the method: as §1

CN1CCN(CCOc2cc(OC3CCOCC3)c3c(Nc4c(Cl)ccc5c4OCO5)ncnc3c2)CC1 [Saracatinib] + NC(=O)Nc1cc(-c2cccc(F)c2)sc1C(=O)N[C@H]1CCCNC1 [AZD7762] (partner 0.2 µM)
relative viability (ABC-1; first compound 0.02 µM): 0.934
relative viability (ABC-1; first compound 0.2 µM): 0.825
relative viability (ABC-1; first compound 0.6325 µM): 0.908
relative viability (ABC-1; first compound 2 µM): 0.695
relative viability (CAL-12T; first compound 0.02 µM): 0.612
relative viability (CAL-12T; first compound 0.2 µM): 0.6
relative viability (CAL-12T; first compound 0.6325 µM): 0.662
relative viability (CAL-12T; first compound 2 µM): 0.699
relative viability (ChaGo-K-1; first compound 0.02 µM): 0.895
relative viability (ChaGo-K-1; first compound 0.2 µM): 0.614
relative viability (ChaGo-K-1; first compound 0.6325 µM): 0.967
relative viability (ChaGo-K-1; first compound 2 µM): 0.924
relative viability (EKVX; first compound 0.02 µM): 0.841
relative viability (EKVX; first compound 0.6325 µM): 0.659
relative viability (EKVX; first compound 2 µM): 0.29
relative viability (EPLC-272H; first compound 0.02 µM): 0.203
relative viability (EPLC-272H; first compound 0.2 µM): 0.229
relative viability (EPLC-272H; first compound 0.6325 µM): 0.18
relative viability (EPLC-272H; first compound 2 µM): 0.245
relative viability (H3255; first compound 0.02 µM): 0.959
relative viability (H3255; first compound 0.2 µM): 0.917
relative viability (H3255; first compound 0.6325 µM): 0.966
relative viability (H3255; first compound 2 µM): 0.346
relative viability (HCC-366; first compound 0.02 µM): 0.215
relative viability (HCC-366; first compound 0.2 µM): 0.0547
relative viability (HCC-366; first compound 0.6325 µM): 0.216
relative viability (HCC-366; first compound 2 µM): 0.139
relative viability (HCC-827; first compound 0.02 µM): 0.223
relative viability (HCC-827; first compound 0.2 µM): 0.119
relative viability (HCC-827; first compound 0.6325 µM): 0.145
relative viability (HCC-827; first compound 2 µM): 0.11
relative viability (NCI-H1355; first compound 0.02 µM): 0.769
relative viability (NCI-H1355; first compound 0.2 µM): 0.564
relative viability (NCI-H1355; first compound 0.6325 µM): 0.719
relative viability (NCI-H1355; first compound 2 µM): 0.715
relative viability (NCI-H1792; first compound 0.02 µM): 0.618
relative viability (NCI-H1792; first compound 0.2 µM): 0.542
relative viability (NCI-H1792; first compound 0.6325 µM): 0.831
relative viability (NCI-H1792; first compound 2 µM): 0.648
relative viability (NCI-H1975; first compound 0.02 µM): 0.812
relative viability (NCI-H1975; first compound 0.2 µM): 0.789
relative viability (NCI-H1975; first compound 0.6325 µM): 0.659
relative viability (NCI-H1975; first compound 2 µM): 0.468
relative viability (NCI-H1993; first compound 0.02 µM): 0.836
relative viability (NCI-H1993; first compound 0.2 µM): 0.719
relative viability (NCI-H1993; first compound 0.6325 µM): 0.694
relative viability (NCI-H1993; first compound 2 µM): 0.581
relative viability (NCI-H2085; first compound 0.02 µM): 1.06
relative viability (NCI-H2085; first compound 0.2 µM): 0.864
relative viability (NCI-H2085; first compound 0.6325 µM): 0.903
relative viability (NCI-H2085; first compound 2 µM): 0.871
relative viability (NCI-H2087; first compound 0.02 µM): 1.33
relative viability (NCI-H2087; first compound 0.2 µM): 1.13
relative viability (NCI-H2087; first compound 0.6325 µM): 1.76
relative viability (NCI-H2087; first compound 2 µM): 1.31
relative viability (NCI-H2342; first compound 0.02 µM): 0.721
relative viability (NCI-H2342; first compound 0.2 µM): 0.471
relative viability (NCI-H2342; first compound 0.6325 µM): 0.562
relative viability (NCI-H2342; first compound 2 µM): 0.515
relative viability (NCI-H322M; first compound 0.02 µM): 0.593
relative viability (NCI-H322M; first compound 0.2 µM): 0.498
relative viability (NCI-H322M; first compound 0.6325 µM): 0.552
relative viability (NCI-H322M; first compound 2 µM): 0.353
relative viability (NCI-H441; first compound 0.02 µM): 1.06
relative viability (NCI-H441; first compound 0.2 µM): 1.16
relative viability (NCI-H441; first compound 0.6325 µM): 1.2
relative viability (NCI-H441; first compound 2 µM): 1.03
relative viability (NCI-H460; first compound 0.02 µM): 0.732
relative viability (NCI-H460; first compound 0.2 µM): 0.482
relative viability (NCI-H460; first compound 0.6325 µM): 0.628
relative viability (NCI-H460; first compound 2 µM): 0.596
